{"source": "patent US20080199449A1", "about": "“Methods and Compositions for Use in Treating Vascular Diseases and Conditions” (The General Hospital Corporation, priority 2005, published 2008)", "key": {"[1]": {"test_system": "dorsal aorta and cardinal veins", "assay": "Artery-vein morphology in embryos expressing GFP in endothelial cells (fli-1 promoter)", "type": "in vivo, zebrafish", "settings": "for Vascular defects at higher doses: doses higher than the 1- to 5 μM suppressing range"}, "[2]": {"test_system": "gridlock phenotype (atresia of the proximal aorta in grl^m145 mutants)", "settings": "whole zebrafish embryos; Peterson et al., Nature Biotechnology 22:595-599, 2004; cited from earlier work"}, "[3]": {"test_system": "gridlock phenotype (atresia of the proximal aorta in grl^m145 mutants)", "assay": "Suppression of the gridlock phenotype (restoration of trunk and tail circulation) in grl^m145 mutant embryos", "type": "in vivo, zebrafish", "description": "Screening for suppressors of the gridlock phenotype. The screen was performed as previous described with modifications (Peterson et al., Nature Biotechnology 22:595-599, 2004). Briefly, pairs of homozygous grl^m145 zebrafish were mated, and fertilized eggs were arrayed in 96-well plates containing E3 embryo buffer. At the 6-somite stage, small molecules from the DiverSet E library (Chembridge) were added to each well, yielding a final concentration of 2.5 μM. Embryos were incubated at 28.5° C. for 48 hrs. Circulation to the tail was assessed visually using a dissecting microscope.\nFluorescent microangiography. Fluorescence microangiography was performed as previously described (Weinstein et al., Nature Medicine 1:1143-1147, 1995)."}, "zebrafish embryos": {"test_system": "zebrafish embryos", "assay": "Gross embryonic morphology and lethality after compound exposure", "type": "in vivo"}}, "note": "Entries after “also recorded” stand apart in the source; their conditions may differ.", "data": [{"smiles": "O=c1cc(N2CCOCC2)oc2c(-c3ccccc3)cccc12", "note": "[LY294002]", "values": [{"measurement": "Vascular defects at higher doses", "setting": "[1]", "value": "severe vascular defects"}]}, {"smiles": "COC[C@H]1OC(=O)c2coc3c2[C@@]1(C)C1=C(C3=O)[C@@H]2CCC(=O)[C@@]2(C)C[C@H]1OC(C)=O", "note": "[wortmannin]", "values": [{"measurement": "Vascular defects at higher doses", "setting": "[1]", "value": "severe vascular defects"}]}, {"smiles": "N#CC(=C(/N)Sc1ccccc1N)/C(C#N)=C(\\N)Sc1ccccc1N", "note": "[U0126]", "values": [{"measurement": "Effect on aorta (artery formation)", "setting": "[1]; 48-hpf fli-1 GFP embryos, GS4898 15 μM, U0126 100 μM, SL327 (FIG. 3E-G)", "value": "either loss or reduction of aorta; also recorded: the aorta is greatly reduced"}, {"measurement": "Effect on vein (posterior/common cardinal vein, vein formation)", "setting": "[1]; 48-hpf fli-1 GFP embryos, GS4898 15 μM, U0126 100 μM, SL327 (FIG. 3F, G)", "value": "expansion of the common cardinal vein; also recorded: enlarged"}]}, {"smiles": "COc1ccc(SCCc2ccncc2)cc1.Cl", "note": "[GS4012]", "values": [{"measurement": "Suppression of the vascular defect in gridlock mutant embryos (earlier screen)", "setting": "[2]", "value": "suppresses the vascular defect in gridlock mutant embryos"}, {"measurement": "Suppression of the gridlock phenotype, single treatment at sub-effective dose", "setting": "[3]; GS4898 0.75 μM, LY294002 3 μM, wortmannin 0.075 μM, GS4012 0.7 μg/mL (FIG. 1F)", "value": "does not suppress"}, {"measurement": "Suppression of the gridlock phenotype (tail circulation)", "setting": "[3]; homozygous grl^m145 mutant zebrafish embryos", "value": "suppressed"}]}, {"smiles": "N#C/C(=C(/N)Sc1ccc(N)cc1)c1ccccc1C(F)(F)F", "note": "[SL327]", "values": [{"measurement": "Gross embryonic morphology, treatment starting at 12-hpf", "setting": "zebrafish embryos; 36-hpf embryos, GS4898 10 μM, SL327 60 μM (FIG. 5)", "value": "moderately deformed tail curvature, but otherwise grossly intact head organogenesis, somitogenesis, and yolk extension"}, {"measurement": "Embryonic lethality and gross defects, treatment at stages earlier than 12-hpf", "setting": "zebrafish embryos; treatment of embryos at earlier stages (FIG. 5)", "value": "high degree of embryonic lethality and variable gross morphologic defects"}]}]}
